These results are taken from patent US6808714B2, “Detection of sarcocystis neurona” (priority 2000, dated 2004).

The test deals with S. neurona merozoites. Put plainly: Ionophore A23187-stimulated merozoite release from infected host cell monolayers. The class given is cell-based, Sarcocystis neurona. As to the method: A stock solution of calcium ionophore A23187 (Sigma) was prepared in dimethylsulfoxide to a final concentration of 1 mg/ml and stored at −20° C. Infected cell monolayers (see example 1) at 12 days post infection were washed three times with PBS or Hanks Balanced Salts Solution (HBSS), and 10 ml of A23187 (1 μM in HBSS) was added to the washed monolayer and incubated at 37° C. for 40 min. in 5% CO2, 95% air. Free merozoites were collected by centrifugation and washed in PBS as above. Parasites released by this method were examined by density gradient centrifugation, but further separation from host cell debris by density gradient centrifugation was not routinely necessary. For further purification, parasites recovered from the supernatant were isolated from host cell debris on a discontinuous buoyant density gradient using Iodixanol (Optiprep) in PBS or HBSS. Merozoites were suspended gently in 1.0 ml PBS and were layered onto a preformed, three step discontinuous gradient with layers of 1.03, 1.04 and 1.06 g/ml in a 15 ml round bottom centrifuge tube. The gradient was centrifuged at 1000×g for 25 min at 20° C. with the brake off. Fractions containing particulate material at each interface were collected and examined microscopically. The fractions(s) containing significant amounts of merozoites were collected for use.
Lung cells at 60% confluence were seeded at a density of 0.1 merozoites per host cell and parasite growth was monitored microscopically for 30 days. Free parasites were not observed until 10 days post infection. During most of the period of observation, the percentage of extracellular parasites was less than 10%. On day 28, the largest number of free parasites was counted; but the next day the numbers of extracellular parasites was back to less than 10%. Duplicate 75 cm flasks were grown for 12 days in HL cells and treated with HBSS or HBSS with 1 μM A23187. Free parasites were collected by centrifugation and counted with a hemocytometer.

For `CNc1ccc2oc(C[C@H]3O[C@@]4(CC[C@H]3C)O[C@H]([C@H](C)C(=O)c3ccc[nH]3)[C@H](C)C[C@H]4C)nc2c1C(=O)O` [A23187], the “Merozoite release in response to ionophore treatment” value (infected GT, HFF, CHO, BHK and primary EM cells, same conditions) was “refractory”; the “Merozoite release in response to ionophore treatment” value (parasitized BM, BM0617, HL, BT and ED cells) is listed as “released merozoites”. Further, the “Enhancement of collection of parasites free in the culture medium” value (infected host cells incubated 40 min in 1 μM A23187) is given as 90 fold.
